Patent US6709851B1, “Stabilization of helicobacter urease” (OraVax-Merieux Co., priority 1997, dated 2004)
Entries after “also recorded” stand apart in the source; their conditions may differ. Read-outs that look alike come from different tables or passages of the source.

Columns and labels:
[1] = biological target: T1, recombinant H. pylori apourease (Helicobacter pylori, UniProt P69996); type: biochemical; settings: for activation of modified urease after removal of excess modifying agent: excess agent removed by diafiltration; for activation with Ni++ and bicarbonate of urease modified by the compound: urease modified before activation
[2] = biological target: T1, recombinant H. pylori apourease; type: biochemical; settings: for effect of imidazole on activation by Ni++ and bicarbonate: imidazole 2.5-25 mM, 200 mM bicarbonate, 200 μM Ni++
[3] = Molecular stability and aggregation of urease by analytical size exclusion HPLC; settings: for effect of additive on molecular association of urease: dialysis against PBS and storage at 4° C.; for effect of blocking free sulfhydryl groups on molecular association of urease: treated urease in solution or dialyzed in PBS
[4] = biological target: in vitro activated urease (Helicobacter pylori, UniProt P69996); type: biochemical
[5] = compound added along with activation buffer

T1 sequence (P69996 whole entry, looked up): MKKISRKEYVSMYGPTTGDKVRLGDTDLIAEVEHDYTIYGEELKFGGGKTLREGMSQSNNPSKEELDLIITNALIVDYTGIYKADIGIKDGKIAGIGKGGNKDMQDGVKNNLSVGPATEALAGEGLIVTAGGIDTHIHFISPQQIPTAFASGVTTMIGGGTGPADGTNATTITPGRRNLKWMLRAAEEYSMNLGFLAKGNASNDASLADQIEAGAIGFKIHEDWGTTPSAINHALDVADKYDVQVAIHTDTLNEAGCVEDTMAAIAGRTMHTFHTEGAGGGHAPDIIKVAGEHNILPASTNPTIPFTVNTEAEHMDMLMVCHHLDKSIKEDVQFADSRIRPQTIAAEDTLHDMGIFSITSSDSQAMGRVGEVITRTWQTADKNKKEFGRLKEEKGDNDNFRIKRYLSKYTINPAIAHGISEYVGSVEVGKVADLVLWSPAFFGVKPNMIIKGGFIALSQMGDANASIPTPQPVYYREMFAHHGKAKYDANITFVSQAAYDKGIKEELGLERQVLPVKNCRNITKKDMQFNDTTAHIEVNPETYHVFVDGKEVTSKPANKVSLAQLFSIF
Chain of in vitro activated urease (P69996 whole entry, looked up): as above

## CCN1C(=O)C=CC1=O [NEM, N-ethyl maleimide]
[1]; 9 mM NEM, room temperature, 60 minutes, 20 mM Hepes pH 7.5
  activation by bicarbonate and nickel of NEM-modified apourease: not activated

## c1c[nH]cn1 [imidazole]
[2]
  effect of imidazole on activation by Ni++ and bicarbonate: inhibits urease activation
[2]; listed as Imidazole
  effect of imidazole on activation by Ni++ and bicarbonate: inhibit the activation of recombinant urease in a concentration-dependent manner

## [Fe+2] [Fe^++]
[1]
  effect of other metal ion on activation of recombinant urease by Ni++: inhibited activation; also recorded: antagonistic effects
[2]
  effect of other metal ion on Ni++ activation by native PAGE and silver staining: inhibitory effect

## [Mn+2] [Mn^++]
[1]
  activation of recombinant urease by metal ion with bicarbonate: resulted in activation of urease
  effect of other metal ion on activation of recombinant urease by Ni++: enhanced the activation; also recorded: synergistic effect

## O=C(O)CN(CCN(CC(=O)O)CC(=O)O)CC(=O)O [EDTA]
[3]
  effect of additive on molecular association of urease: did not have any significant effect

## O=C(O)c1cc(SSc2ccc([N+](=O)[O-])c(C(=O)O)c2)ccc1[N+](=O)[O-] [DTNB, 5-5′-dithio-bis-2-nitrobenzoic acid]
[1]; [5]
  activation with compound included in the activation mixture: blocking of activation
[1]
  activation of modified urease after removal of excess modifying agent: not activated
  activation with Ni++ and bicarbonate of urease modified by the compound: not activated
[3]
  effect of blocking free sulfhydryl groups on molecular association of urease: stabilizing effect on urease in solution; also recorded: reduce the molecular associations; also recorded: stabilized the hexamer form of urease and prevented molecular association

## O=[N+]([O-])c1ccc(F)c([N+](=O)[O-])c1 [DNFB, dinitrofluorobenzene]
[1]
  activation with compound included in the activation mixture: activation is blocked
  in vitro activation after DNFB treatment for 5, 15, 30, and 60 minutes: blocks in vitro activation
  pH dependence of DNFB blocking of in vitro activation: more effective at alkaline pH (pH>7.5) than at neutral or acidic pH; also recorded: pH-dependent
[1]; pH 8
  in vitro activation of apourease modified with DNFB: blocked in vitro activation; also recorded: not activated
[3]; dialyzed against phosphate buffer overnight
  effect of DNFB treatment on molecular stability: stabilizes the hexameric form of urease
[4]
  effect of DNFB on pre-activated urease activity: inactivates pre-activated urease in a pH-dependent manner

## [Co+2] [Co^++]
[1]
  activation of recombinant urease by metal ion with bicarbonate: do not cause urease activation
  effect of other metal ion on activation of recombinant urease by Ni++: inhibit activation

## [Mg+2] [Mg^++]
[1]
  effect of other metal ion on activation of recombinant urease by Ni++: no detectable effect

## [Cu+2] [Cu^++]
[1]
  effect of other metal ion on activation of recombinant urease by Ni++: inhibited activation; also recorded: antagonistic effects
[2]
  effect of other metal ion on Ni++ activation by native PAGE and silver staining: inhibitory effect

## OCCS [β-mercaptoethanol]
[3]
  effect of additive on molecular association of urease: stabilized urease in the hexameric form; also recorded: prevented the molecular associations

## NC(=O)CI [iodoacetamide]
[1]; [5]
  activation with compound included in the activation mixture: blocking of activation
[1]
  activation of modified urease after removal of excess modifying agent: not activated
  activation with Ni++ and bicarbonate of urease modified by the compound: not activated; also recorded: inhibits activation
[3]
  effect of blocking free sulfhydryl groups on molecular association of urease: stabilizing effect on urease in solution; also recorded: reduce the molecular associations; also recorded: stabilized the hexameric form of urease and prevented molecular association

## [Ni+2] [Ni^++]
[1]
  activation of recombinant urease by metal ion with bicarbonate: resulted in activation of urease

## OC[C@H]1O[C@@](CO)(O[C@H]2O[C@H](CO)[C@@H](O)[C@H](O)[C@H]2O)[C@@H](O)[C@@H]1O [Sucrose]
[3]
  effect of additive on molecular association of urease: significantly reduced the extent of aggregation
